Experimental data from patent US20070054838A1, “METHOD FOR IMPROVING DIAGNOSTIC QUALITY IN ECHOCARDIOGRAPHY” (priority 2005, published 2007).

Experiments:
[1] = pharmacokinetic studies of oral cilobradine in dogs; assay type: in vivo
Experimental: (§1) For example, the following dosages relevant for practicing the present invention with the bradycardic agent cilobradine in cats and dogs, have been determined in appropriate pharmacokinetic studies performed by the inventors. The single oral dose of cilobradine for potent heart rate reduction in cats is 0.2-0.4 mg/kg. The single oral dose of cilobradine for potent heart rate reduction in dogs is 0.3 mg/kg. […] Peak plasma levels are reached 0.5 hours after oral administration in cats and after 1 to 2 hours in dogs.

[2] = pharmacokinetic studies of oral cilobradine in cats; assay type: in vivo
Experimental: as §1

[3] = test system: hyperpolarisation activated, cAMP-modulated cation current channels (HCN); conditions: cardiac conductive tissues; cited from earlier work
[4] = test system: cats suffering from asymptomatic HCM; test: clinical field study, echocardiography in cats suffering from asymptomatic HCM; assay type: in vivo; conditions: during treatment, days 3 and 6; orally once daily for 5 days; four cats; at baseline not possible in 2 of 4 cats
Experimental: The use according to the invention of an If channel blocker, namely cilobradine, was investigated in a clinical field study with cats suffering from asymptomatic HCM.
Four cats diagnosed as suffering from asymptomatic HCM by means of motion mode […] (left ventricular wall thickness>6 mm), received cilobradine orally once daily for 5 consecutive days. Detailed clinical examinations were conducted at baseline and on days 1, 2, 3, 6 and 9. ECG measurements were performed at baseline and on days 3 and 6 of the study.
The composition used in the experiment was as follows. • Oral solution containing 2 mg/ml cilobradine • Active ingredient added to 0.9% NaCl solution
The results of the experiment, measuring the left ventricular E to A ratios obtained at baseline and under cilobradine treatment, are shown in enclosed FIG. 1.

Compound	Absolute bioavailability of oral formulations [1]	Single oral dose for potent heart rate reduction [1] [mg/kg]	Time at which peak plasma levels are reached ([2]; after oral administration) [h]	Absolute bioavailability of oral formulations ([2]; oral) [%]	Single oral dose for potent heart rate reduction ([2]; oral) [mg/kg]	Block of HCN channels (If current) [3]	Calculation of left ventricular E/A ratios [4]
COc1ccc(CCN2CCCC(CN3CCc4cc(OC)c(OC)cc4CC3=O)C2)cc1OC (centres unmarked) [cilobradine]	26-43%	0.3	0.5	22.6	0.2 to 0.4	selectively block	possible in all cats
COc1ccc(CCN(C)CCCN2CCc3cc(OC)c(OC)cc3CC2=O)cc1OC [zatebradine]						selectively block	
